# “And” between values parts separate entries of the source, which are not always exact repeats. Equal entries are not always repeated. Numbers after ± are expanded uncertainties.
# Experiments:
# [1] = 101.33 kPa, Liquid; for viscosity: Concentric cylinders viscometry; for speed of sound: Sing-around technique in a fixed-path interferometer; for mass density: Vibrating tube method
# [2] = xn = mol fraction of the nth substance listed; conditions: 100 kPa, Liquid, Concentric cylinders viscometry, x2 = 0
SMILES,viscosity ([1]; 293.15 K) [mPa·s],speed of sound ([1]; 293.15 K) [m/s],mass density ([1]; 293.15 K) [kg/m3],viscosity ([1]; 303.15 K) [mPa·s],speed of sound ([1]; 303.15 K) [m/s],mass density ([1]; 303.15 K) [kg/m3],viscosity ([1]; 313.15 K),speed of sound ([1]; 313.15 K) [m/s],mass density ([1]; 313.15 K) [kg/m3],viscosity ([1]; 323.15 K) [mPa·s],speed of sound ([1]; 323.15 K) [m/s],mass density ([1]; 323.15 K) [kg/m3],viscosity ([1]; 333.15 K),speed of sound ([1]; 333.15 K) [m/s],mass density ([1]; 333.15 K) [kg/m3],viscosity ([1]; 343.15 K),speed of sound ([1]; 343.15 K) [m/s],mass density ([1]; 343.15 K) [kg/m3],viscosity ([1]; 353.15 K),mass density ([1]; 353.15 K) [kg/m3],other results
"CC(CC(C)(C)C)CC(C)(C)CC(C)(C)C (configuration not stated) [2,2,4,4,6,8,8-heptamethylnonane]",3.71 ± 0.03,1285.8 ± 1.4,784.48 ± 0.21,2.93 ± 0.03,1248.6 ± 1.4,777.78 ± 0.22,2.37 ± 0.03 mPa·s,1212 ± 1.4,771.07 ± 0.22,1.95 ± 0.02,1176.2 ± 1.4,764.34 ± 0.22,1.64 ± 0.02 mPa·s,1141 ± 1.4,757.59 ± 0.22,1.39 ± 0.02 mPa·s,1106.5 ± 1.4,750.83 ± 0.22,1.19 ± 0.02 mPa·s,743.9 ± 0.4,viscosity ([1]; 363.15 K): 1.04 ± 0.02 mPa·s; mass density ([1]; 363.15 K): 737 ± 0.4 kg/m3; viscosity ([1]; 373.15 K): 0.91 ± 0.02 mPa·s and 0.913 ± 0.021 mPa·s; mass density ([1]; 373.15 K): 730.2 ± 0.4 kg/m3
"CC(CC(C)(C)C)CC(C)(C)C [2,2,4,6,6-pentamethylheptane]",1.31 ± 0.02,1203.7 ± 1.3,745.21 ± 0.19,1.11 ± 0.02,1164.9 ± 1.3,737.93 ± 0.19,0.94 ± 0.02 mPa·s and 0.948 ± 0.021 mPa·s,1126.7 ± 1.2,730.61 ± 0.19,0.82 ± 0.02,1089.3 ± 1.2,723.26 ± 0.19,0.715 ± 0.021 mPa·s and 0.71 ± 0.02 mPa·s,1052.6 ± 1.2,715.86 ± 0.2,0.632 ± 0.021 mPa·s and 0.63 ± 0.02 mPa·s,1016.5 ± 1.2,708.42 ± 0.2,0.562 ± 0.021 mPa·s and 0.56 ± 0.02 mPa·s,700.7 ± 0.4,viscosity ([1]; 363.15 K): 0.505 ± 0.021 mPa·s and 0.5 ± 0.02 mPa·s; mass density ([1]; 363.15 K): 693.1 ± 0.4 kg/m3; viscosity ([1]; 373.15 K): 0.459 ± 0.021 mPa·s and 0.45 ± 0.02 mPa·s; mass density ([1]; 373.15 K): 685.4 ± 0.4 kg/m3
"CC(CC(C)(C)C)CC(C)(C)C [2,2,4,6,6-pentamethylheptane] + CC(CC(C)(C)C)CC(C)(C)CC(C)(C)C",,,,,,,,,,,,,,,,,,,,,viscosity ([2]; 293.15 K): 1.31 ± 0.02 mPa·s; viscosity ([2]; 303.15 K): 1.11 ± 0.02 mPa·s; viscosity ([2]; 313.15 K): 0.948 ± 0.021 mPa·s; viscosity ([2]; 323.15 K): 0.82 ± 0.021 mPa·s; viscosity ([2]; 333.15 K): 0.715 ± 0.021 mPa·s; viscosity ([2]; 343.15 K): 0.632 ± 0.021 mPa·s; viscosity ([2]; 353.15 K): 0.562 ± 0.021 mPa·s; viscosity ([2]; 363.15 K): 0.505 ± 0.021 mPa·s; viscosity ([2]; 373.15 K): 0.459 ± 0.021 mPa·s

# — the NIST ThermoML archive (doi:10.1021/je501141e)
